Values of other authors in patent US7645459B2, “Dosage forms of bisphosphonates” (The Procter & Gamble Company, priority 2004, dated 2010).

Settings: administration within 30 minutes of a meal

- reduction of the amount absorbed compared to administration in the fasting state: 50%
Compound: O=P(O)(O)C(O)(Cc1cccnc1)P(=O)(O)O [risedronate, 1-hydroxy-2-(3-pyridinyl)-ethylidene-1,1-bisphosphonic acid]
